Experimental data as given in US11667602B2, “Compounds and their use” (AstraZeneca AB, priority 2020, dated 2023).
≈ marks a conversion by molar mass, not a printed value.

Key:
[1] = Human Plasma Protein Binding (Test B); assay type: in vitro ADME; settings: fraction unbound (fu)
Outline: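 Values given as % free (fu) in human plasma, using the method of Wernevik et al. (2020). For compounds tested more than once, the arithmetic mean is given.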

[2] = Human Liver Microsomal Stability (Test C); assay type: in vitro ADME; settings: human, liver microsomes
Outline: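 CLint (μl/min/mg protein) derived from compound depletion in human liver microsomes following a published standardized early-DMPK protocol; replicate determinations given as arithmetic mean.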

[3] = Rat Hepatocyte Stability (Test E); assay type: in vitro ADME; settings: rat, hepatocytes, geometric mean if run multiple times
Outline: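 Intrinsic clearance in rat hepatocytes, expressed as μl/min/10^6 cells, following the literature integrated DMPK panel method. Repeat determinations combined as geometric mean.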

[4] = Solubility (Test F); assay type: physicochemical; settings: arithmetic mean if run multiple times
Protocol: The assay was conducted according to the Solubility Assay described in pages 164-167 of Wernevik, J. et al., “A Fully Integrated Assay Panel for Early Drug Metabolism and Pharmacokinetics Profiling”, Assay and Drug Development Technologies, 2020, 18(4), 157-179. Data are reported in Table 36 as solubility ([…]. Where the assay was run multiple times for the same compound, the arithmetic mean is reported.

[5] = target: T1, human RXFP1 (Homo sapiens, UniProt Q9HBX9); test: RXFP1 Hu cAMP (Test A); assay type: cell-based; design: expressed in transfected cells; host or cells: Jump-In T-REx CHO-K1 cells (ThermoFisher), induced with 10 ng/ml doxycycline for 24 h; settings: RXFP1 Hu cAMP; for EC50: read-out: Test A EC50
T1 sequence (Q9HBX9 1-757): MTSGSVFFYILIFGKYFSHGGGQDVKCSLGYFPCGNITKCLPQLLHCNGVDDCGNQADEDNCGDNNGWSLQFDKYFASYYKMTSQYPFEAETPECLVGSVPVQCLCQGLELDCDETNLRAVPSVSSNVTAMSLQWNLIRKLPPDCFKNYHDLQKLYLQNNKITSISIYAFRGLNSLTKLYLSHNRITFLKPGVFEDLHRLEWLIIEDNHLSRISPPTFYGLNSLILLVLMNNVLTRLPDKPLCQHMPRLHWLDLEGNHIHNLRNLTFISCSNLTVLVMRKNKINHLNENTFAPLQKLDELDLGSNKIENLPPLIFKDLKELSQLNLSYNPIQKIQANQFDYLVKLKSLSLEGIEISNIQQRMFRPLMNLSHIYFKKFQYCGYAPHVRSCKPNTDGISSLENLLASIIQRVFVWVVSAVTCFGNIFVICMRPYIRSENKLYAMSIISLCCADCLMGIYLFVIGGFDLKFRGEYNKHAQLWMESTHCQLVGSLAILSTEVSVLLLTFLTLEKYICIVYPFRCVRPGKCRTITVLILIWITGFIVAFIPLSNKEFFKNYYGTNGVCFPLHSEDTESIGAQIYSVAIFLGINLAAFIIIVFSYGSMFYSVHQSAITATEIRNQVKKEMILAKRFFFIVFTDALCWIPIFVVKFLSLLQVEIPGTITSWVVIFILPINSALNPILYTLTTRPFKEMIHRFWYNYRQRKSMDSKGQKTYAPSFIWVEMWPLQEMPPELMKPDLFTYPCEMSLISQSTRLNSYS
Outline: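 Cells: CHO-K1 stably carrying human RXFP1, expressed after 24 h 10 ng/ml doxycycline; 0.5 mM IBMX final, HTRF detection after 2 h at room temperature.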

| Test B Human Plasma Protein Binding (% free) [1] | microsomal CLint [2] | hepatocyte CLint [3] | solubility [4] | Test A Sinf [5] | EC50 [5] | SMILES |
| --- | --- | --- | --- | --- | --- | --- |
| 0.23 % free | 23 µL/min/mg | 14 µL/min/1e6 cells | 51 µM (≈ 33.7 µg/mL) | 130% |  | COc1cc(F)c(O[C@H]2CC[C@@H](C(=O)O)CC2)cc1C(=O)N[C@@H]1[C@H]2CC[C@H](C2)[C@@H]1C(=O)Nc1cc(C(F)(F)F)cc(C(F)(F)F)c1 [Example 22, (1S,4s)-4-(5-(((1S,2R,3S,4R)-3-((3,5-Bis(trifluoromethyl)phenyl)carbamoyl)bicyclo[2.2.1]heptan-2-yl)carbamoyl)-2-fluoro-4-methoxyphenoxy)cyclohexane-1-carboxylic acid] |
| 14 % free | 5.8 µL/min/mg | 110 µL/min/1e6 cells | > 1000 µM | 100% | > 5900 nM | COc1cc(F)c(O[C@H]2CC[C@@H](C(=O)O)CC2)cc1C(=O)NC1C(C(=O)NCCCC(F)(F)F)[C@@H]2CC[C@H]1C2 (stereo partly drawn) [Example 175, (1S,4s)-4-(2-Fluoro-4-methoxy-5-(((1S,2R,3S,4R)-3-((4,4,4-trifluorobutyl)carbamoyl)bicyclo[2.2.1]heptan-2-yl)carbamoyl)phenoxy)cyclohexane-1-carboxylic acid] |
| 0.20 % free | < 3 µL/min/mg | 20 µL/min/1e6 cells | < 0.23 µM | 143% | 200 nM | COc1cc(F)c(O[C@H]2CC[C@@](C)(C(=O)O)CC2)cc1C(=O)Nc1cc2ccccc2cc1C(=O)NCC1(C)CCC1 [Example 215, (1s,4s)-4-(2-Fluoro-4-methoxy-5-((3-(((1-methylcyclobutyl)methyl)carbamoyl)naphthalen-2-yl)carbamoyl)phenoxy)-1-methylcyclohexane-1-carboxylic acid] |
| 50 % free | < 3 µL/min/mg | 17 µL/min/1e6 cells | 780 µM (≈ 426 µg/mL) |  | > 5000 nM | COc1cc(C#N)c(O[C@H]2CC[C@@](C)(C(=O)O)CC2)cc1C(=O)N[C@@H]1[C@H]2CC[C@H](C2)[C@@H]1C(=O)NC[C@H](F)CO [Example 89] |
| 0.50 % free | 13 µL/min/mg | 14 µL/min/1e6 cells | > 1000 µM | 103% | 210 nM | COc1cc(F)c(-c2ccc(C(=O)O)c(F)c2)cc1C(=O)N[C@@H]1[C@H]2CC[C@H](C2)[C@@H]1C(=O)Nc1cccc(S(=O)(=O)C(F)(F)F)c1 [Example 236, 2′,3-Difluoro-4′-methoxy-5′-(((1S,2R,3S,4R)-3-((3-((trifluoromethyl)sulfonyl)phenyl)carbamoyl)bicyclo[2.2.1]heptan-2-yl)carbamoyl)-[1,1′-biphenyl]-4-carboxylic acid] |
| 0.44 % free | 18 µL/min/mg | 29 µL/min/1e6 cells | 380 µM (≈ 242 µg/mL) | 79% | 750 nM | COc1cc(F)c(-c2cccc(CCC(=O)O)c2)cc1C(=O)N[C@@H]1CCC[C@@H]1C(=O)Nc1cccc(S(=O)(=O)C(F)(F)F)c1 [Example 319] |
| 0.10 % free | 21 µL/min/mg | 23 µL/min/1e6 cells | 54 µM (≈ 33.9 µg/mL) | 101% | 88 nM | COc1cc(F)c(-c2ccc(C(=O)O)cc2)cc1C(=O)N[C@@H]1[C@H]2CC[C@H](C2)[C@@H]1C(=O)Nc1cccc(S(F)(F)(F)(F)F)c1 [Example 209, 2′-Fluoro-4′-methoxy-5′-(((1S,2R,3S,4R)-3-((3-(pentafluoro-λ6-sulfaneyl)phenyl)carbamoyl)bicyclo[2.2.1]heptan-2-yl)carbamoyl)-[1,1′-biphenyl]-4-carboxylic acid] |
| 31 % free | < 3 µL/min/mg | 18 µL/min/1e6 cells | 860 µM (≈ 476 µg/mL) | 100% | 680 nM | COc1cc(C#N)c(O[C@H]2CC[C@@](C)(C(=O)O)CC2)cc1C(=O)N[C@@H]1[C@H]2CC[C@H](C2)[C@@H]1C(=O)NCC1(OC)CC1 [Example 111] |
| 14 % free | 9 µL/min/mg | 32 µL/min/1e6 cells | 830 µM (≈ 461 µg/mL) | 111% | > 710 nM | COc1cc(C#N)c(O[C@H]2CC[C@@](C)(C(=O)O)CC2)cc1C(=O)N[C@@H]1[C@H]2CC[C@H](C2)[C@@H]1C(=O)NCC1(F)CCC1 [Example 94] |
| 0.39 % free | 32 µL/min/mg | 14 µL/min/1e6 cells | 680 µM (≈ 434 µg/mL) | 93% | > 350 nM | COc1cc(F)c(C2=CCC(C(=O)O)CC2)cc1C(=O)N[C@@H]1[C@H]2CC[C@H](C2)[C@@H]1C(=O)Nc1cccc(S(=O)(=O)C(F)(F)F)c1 (mixture of isomers) [Example 267, (RS)-2′-Fluoro-4′-methoxy-5′-(((1S,2R,3S,4R)-3-((3-((trifluoromethyl)sulfonyl)phenyl)carbamoyl)bicyclo[2.2.1]heptan-2-yl)carbamoyl)-2,3,4,5-tetrahydro-[1,1′-biphenyl]-4-carboxylic acid] |
| 0.59 % free | 7.4 µL/min/mg | 18 µL/min/1e6 cells | 890 µM (≈ 466 µg/mL) |  | > 5000 nM | COc1cc(C#N)c(O[C@H]2C[C@@](C)(C(=O)O)C2)cc1C(=O)N[C@@H]1[C@H]2CC[C@H](C2)[C@@H]1C(=O)NCC1(C)CCC1 [Example 148, (1S,3s)-3-(2-cyano-4-methoxy-5-(((1S,2R,3S,4R)-3-(((1-methylcyclobutyl)methyl)carbamoyl)bicyclo[2.2.1]heptan-2-yl)carbamoyl)phenoxy)-1-methylcyclobutane-1-carboxylic acid] |
| 15 % free | < 3 µL/min/mg | 110 µL/min/1e6 cells | > 1000 µM | 88% | > 5000 nM | COc1cc(F)c(O[C@H]2CC[C@@H](C(=O)O)CC2)cc1C(=O)N[C@@H]1[C@H]2CC[C@H](C2)[C@@H]1C(=O)NC1CC(F)(F)C1 [Example 33, (1S,4s)-4-(5-(((1S,2R,3S,4R)-3-((3,3-Difluorocyclobutyl)carbamoyl)bicyclo[2.2.1]heptan-2-yl)carbamoyl)-2-fluoro-4-methoxyphenoxy)cyclohexane-1-carboxylic acid] |
| 14 % free | 4.4 µL/min/mg | 14 µL/min/1e6 cells | > 1000 µM | 97% | 840 nM | COc1cc(F)c(O[C@H]2CC[C@@](C)(C(=O)O)CC2)cc1C(=O)N[C@@H]1CCC[C@@H]1C(=O)NCC1(C)CC1 [Example 68] |
| 10 % free | 11 µL/min/mg | 38 µL/min/1e6 cells | 860 µM (≈ 512 µg/mL) |  | > 5000 nM | COc1cc(C#N)c(O[C@H]2CC[C@@](C)(C(=O)O)CC2)cc1C(=O)N[C@@H]1[C@H]2CC[C@H](C2)[C@@H]1C(=O)NCC1(O)CCCCCC1 [Example 103] |
| 17 % free | 17 µL/min/mg | 94 µL/min/1e6 cells | 810 µM (≈ 495 µg/mL) |  | > 9400 nM | COc1cc(C#N)c(O[C@H]2CC[C@@](C)(C(=O)O)CC2)cc1C(=O)N[C@@H]1[C@H]2CC[C@H](C2)[C@@H]1C(=O)NCc1nccc(C(F)F)n1 [Example 114] |
| 0.10 % free | 6.6 µL/min/mg | 22 µL/min/1e6 cells | 10 µM (≈ 6.33 µg/mL) | 98% | 240 nM | COc1cc(F)c(-c2cccc(C(=O)O)c2)cc1C(=O)N[C@H]1[C@@H](C(=O)Nc2cccc(S(=O)(=O)C(F)(F)F)c2)[C@@H]2C=C[C@H]1C2 (racemic) [Example 225, rac-2′-Fluoro-4′-methoxy-5′-(((1R,2R,3S,4S)-3-((3-((trifluoromethyl)sulfonyl)phenyl)carbamoyl)bicyclo[2.2.1]hept-5-en-2-yl)carbamoyl)-[1,1′-biphenyl]-3-carboxylic acid] |
